Assays:
[1] = tested on: BG-1 human ovarian cancer cells; assay: Inhibition of growth of BG-1 ovarian cancer cells (MTT), with MacSynergy II synergy analysis; assay type: cell-based; conditions: for Percent Inhibition: Table G, CCI-779 0 nM
Protocol: In these test procedures, rapamycin 42-ester with 3-hydroxy-2-(hydroxymethyl)-2-methylpropionic acid was used as a representative rapamycin, and 2-(4-hydroxy-phenyl)-3-methyl-1-[4-(2-piperdin-1-yl-ethoxy)-benzyl-1 H-indol-5-ol, raloxifene, and 4-hydroxytamoxifen were used as representative antiestrogens.
One day before the experiment, cells were plated in 96-well plates at a cell density of 2,500 cells/well in IMEM medium supplemented with 10% fetal bovine serum. The next day, cells were treated with various concentrations of antiestrogen and rapamycin 42-ester with 3-hydroxy-2-(hydroxymethyl)-2-methylpropionic acid (referred to as CCI-779 in the tables below). Five or six-days later, cell growth was monitored.

MCF-7 tumors = assay: Growth of MCF-7 breast carcinoma implanted in nude mice; assay type: in vivo; conditions: for Tumor size (mean ± standard error): 20 mg/kg ERA-923 PO qd days 1-35
Protocol: In the third standard pharmacological test procedure, mice implanted with MCF-7 tumors were treated with a combination of ERA-923 and CCI-779. […] ERA-923 was dissolved in 1% Tween 80 and 0.9% NaCl Injection USP. Drug was aliquoted into daily doses using 10.0 ml glass bottles and frozen at −20° C. until needed. CCI-779 was made fresh using a 5% ETOH, 4.9% Phosal and 0.1% Tween 80 in Sterile Water. 0.2 ml of each drug was given orally starting the day after tumor implantation. ERA 923 was given daily for the duration of the experiment and CCI-779 was given every other day for the first 10 days. The control vehicles were given on the same regime as the drugs. MCF7 cells were cultured in IMEM containing 5% Fetal Bovine Serum with passages varying from 2-20. After trypsinization tumors were resuspended in IMEM with 2% Serum at a 1:1 ratio with Matrigel. 10 million cells were injected subcutaneously into the mammary tissue of each mouse using a 1.0 ml tuberculin syringe with a 23 3/4 gauge needle. Five to six week old female ovariectomized athymic nu/nu mice (Charles River Labs: Wilmington, Mass.) weighing from 20.0-23.0 g were used. The animals were housed 5 to a cage in a Microisolator Open Rack System (Lab Products: Maywood, N.J.). Each mouse received a 17β-Estradiol pellet (0.72 mg/pellet-60 day release). The pellets were injected with a 10 gauge trochar into the lateral side of the neck between the ear and the shoulder 1-2 weeks prior to tumor injection. Control groups were 15 mice/vehicle whereas the drug groups were 10 mice/drug. Tumors were measured weekly by means of solar calipers (Cole-Parmer Instuments: Vernon Hills, Ill.) and tumor weights were estimated from tumor diameters by the following formula:
Tumor weight (mg)=tumor length (mm)×tumor width (mm)^2/2.
Mice were euthanized 36 days after tumor injection by CO2 inhalation. […] Nude mice bearing MCF-7 tumors were given ERA-923, CCI-779 or the combination of both drugs.

[2] = tested on: MCF-7 human breast cancer cells; assay: Inhibition of growth of MCF-7 breast cancer cells (MTT), with MacSynergy II synergy analysis;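 note: cells treated five or six days with single agents or combinations, growth read by MTT, synergy surface equals observed % inhibition minus Bliss additive prediction, values under 0% signal antagonism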
Protocol: MCF-7 human breast cancer cells were maintained at 37° C. in a humidified atmosphere of 5% CO2 and 95% air in IMEM medium supplemented with 10% fetal bovine serum. […] One day before the experiment, cells were plated in 96-well plates at a cell density of 2,500 cells/well in IMEM medium supplemented with 10% fetal bovine serum. The next day, cells were treated with various concentrations of antiestrogen and rapamycin 42-ester with 3-hydroxy-2-(hydroxymethyl)-2-methylpropionic acid (referred to as CCI-779 in the tables below). Five or six-days later, cell growth was monitored. MTT solution (20 ul) (0.5 mg/ml) was added to each well and cells were incubated for an additional 4 h. The solution was then removed and 150 ul of DMSO added. The intensity of dark blue color corresponding to number of cells was read at 540 nm with an automated plate reader.
Briefly, theoretical additive interactions were calculated from the dose-response curves of each individual drug based on Bliss independence model. The calculated additive surface was then subtracted from the experimental surface to obtain a synergy surface representing % inhibition above the calculated additive value-synergy index. […] Likewise, any peak below the 0% plane is indicative of antagonism.

[3] = BG-1, antiestrogen in combination with CCI-779, MacSynergy II, Bliss independence model
[4] = MCF-7, antiestrogen in combination with CCI-779, MacSynergy II, Bliss independence model

Cc1c(-c2ccc(O)cc2)n(Cc2ccc(OCCN3CCCCC3)cc2)c2ccc(O)cc12 [ERA-923]
Antagonsim [1, 3]: 0.0 μM^2%
Synergy [1, 3]: 25.9 μM^2%
Percent Inhibition ([1]; ERA-923 0.25 nM): 14.72%
Percent Inhibition ([1]; ERA-923 0.5 nM): 24.14%
Percent Inhibition ([1]; ERA-923 1 nM): 48.93%
Percent Inhibition ([1]; ERA-923 2 nM): 57.19%
Percent Inhibition ([1]; ERA-923 3 nM): 72.54%
Percent Inhibition ([1]; ERA-923 4 nM): 80.34%
Percent Inhibition ([1]; ERA-923 5 nM): 75.94%
Tumor size (mean ± standard error) (MCF-7 tumors; day 14 after tumor implantation): 480 ± 91 mg
Tumor size (mean ± standard error) (MCF-7 tumors; day 21 after tumor implantation): 679 ± 127 mg
Tumor size (mean ± standard error) (MCF-7 tumors; day 28 after tumor implantation): 842 ± 163 mg
Tumor size (mean ± standard error) (MCF-7 tumors; day 36 after tumor implantation): 993 ± 197 mg
inhibition of tumor growth (MCF-7 tumors; nude mice bearing MCF-7 tumors, growth inhibition=experimental value−200 (baseline)/control value −200): approximately 35%
increase of growth-inhibitory effect as estimated by the IC50 ([2]; ERA-923 in the presence of non-inhibitory concentrations of CCI-779): approximately 10 fold
Antagonsim [2, 4]: 0.0 μM^2%
Synergy [2, 4]: 138.0 μM^2%
Percent Inhibition ([2]; Table A, CCI-779 0 nM, ERA-923 0.25 nM): 9%
Percent Inhibition ([2]; Table A, CCI-779 0 nM, ERA-923 0.5 nM): 7.59%
Percent Inhibition ([2]; Table A, CCI-779 0 nM, ERA-923 1 nM): 37.56%
Percent Inhibition ([2]; Table A, CCI-779 0 nM, ERA-923 2 nM): 54.65%
Percent Inhibition ([2]; Table A, CCI-779 0 nM, ERA-923 3 nM): 59.39%
Percent Inhibition ([2]; Table A, CCI-779 0 nM, ERA-923 4 nM): 60.04%
Percent Inhibition ([2]; Table A, CCI-779 0 nM, ERA-923 5 nM): 61.12%
Percent Inhibition ([2]; Table D, ERA-923 0 nM + ERA-923 0.25 nM): −0.78%
Percent Inhibition ([2]; Table D, ERA-923 0 nM + ERA-923 0.5 nM): 26.09%
Percent Inhibition ([2]; Table D, ERA-923 0 nM + ERA-923 1 nM): 54.91%
Percent Inhibition ([2]; Table D, ERA-923 0 nM + ERA-923 2 nM): 71.82%
Percent Inhibition ([2]; Table D, ERA-923 0 nM + ERA-923 3 nM): 87.65%
Percent Inhibition ([2]; Table D, ERA-923 0 nM + ERA-923 4 nM): 78.72%
Percent Inhibition ([2]; Table D, ERA-923 0 nM + ERA-923 5 nM): 79.25%
Percent Inhibition ([2]; Table D, ERA-923 0.25 nM + ERA-923 0 nM): 6.69%
Percent Inhibition ([2]; Table D, ERA-923 0.25 nM + ERA-923 0.25 nM): 35.93%
Percent Inhibition ([2]; Table D, ERA-923 0.25 nM + ERA-923 0.5 nM): 56.79%
Percent Inhibition ([2]; Table D, ERA-923 0.25 nM + ERA-923 1 nM): 64.27%
Percent Inhibition ([2]; Table D, ERA-923 0.25 nM + ERA-923 2 nM): 76.33%
Percent Inhibition ([2]; Table D, ERA-923 0.25 nM + ERA-923 3 nM): 78.99%
Percent Inhibition ([2]; Table D, ERA-923 0.25 nM + ERA-923 4 nM): 78.39%
Percent Inhibition ([2]; Table D, ERA-923 0.25 nM + ERA-923 5 nM): 79.68%
Percent Inhibition ([2]; Table D, ERA-923 0.5 nM + ERA-923 0 nM): 8.17%
Percent Inhibition ([2]; Table D, ERA-923 0.5 nM + ERA-923 0.25 nM): 53.61%
Percent Inhibition ([2]; Table D, ERA-923 0.5 nM + ERA-923 0.5 nM): 63.08%
Percent Inhibition ([2]; Table D, ERA-923 0.5 nM + ERA-923 1 nM): 68.58%
Percent Inhibition ([2]; Table D, ERA-923 0.5 nM + ERA-923 2 nM): 73.71%
Percent Inhibition ([2]; Table D, ERA-923 0.5 nM + ERA-923 3 nM): 81.21%
Percent Inhibition ([2]; Table D, ERA-923 0.5 nM + ERA-923 4 nM): 79.57%
Percent Inhibition ([2]; Table D, ERA-923 0.5 nM + ERA-923 5 nM): 81.43%
Percent Inhibition ([2]; Table D, ERA-923 1 nM + ERA-923 0 nM): 42.1%
Percent Inhibition ([2]; Table D, ERA-923 1 nM + ERA-923 0.25 nM): 66.83%
Percent Inhibition ([2]; Table D, ERA-923 1 nM + ERA-923 0.5 nM): 75.09%
Percent Inhibition ([2]; Table D, ERA-923 1 nM + ERA-923 1 nM): 74.24%
Percent Inhibition ([2]; Table D, ERA-923 1 nM + ERA-923 2 nM): 74.07%
Percent Inhibition ([2]; Table D, ERA-923 1 nM + ERA-923 3 nM): 76.56%
Percent Inhibition ([2]; Table D, ERA-923 1 nM + ERA-923 4 nM): 80.45%
Percent Inhibition ([2]; Table D, ERA-923 1 nM + ERA-923 5 nM): 82.97%
Percent Inhibition ([2]; Table D, ERA-923 2 nM + ERA-923 0 nM): 67.81%
Percent Inhibition ([2]; Table D, ERA-923 2 nM + ERA-923 0.25 nM): 74.73%
Percent Inhibition ([2]; Table D, ERA-923 2 nM + ERA-923 0.5 nM): 75.08%
Percent Inhibition ([2]; Table D, ERA-923 2 nM + ERA-923 1 nM): 75.36%
Percent Inhibition ([2]; Table D, ERA-923 2 nM + ERA-923 2 nM): 75.03%
Percent Inhibition ([2]; Table D, ERA-923 2 nM + ERA-923 3 nM): 78.5%
Percent Inhibition ([2]; Table D, ERA-923 2 nM + ERA-923 4 nM): 81.23%
Percent Inhibition ([2]; Table D, ERA-923 2 nM + ERA-923 5 nM): 82.02%
Percent Inhibition ([2]; Table D, ERA-923 3 nM + ERA-923 0 nM): 52.23%
Percent Inhibition ([2]; Table D, ERA-923 3 nM + ERA-923 0.25 nM): 75.24%
Percent Inhibition ([2]; Table D, ERA-923 3 nM + ERA-923 0.5 nM): 76.06%
Percent Inhibition ([2]; Table D, ERA-923 3 nM + ERA-923 1 nM): 77.68%
Percent Inhibition ([2]; Table D, ERA-923 3 nM + ERA-923 2 nM): 76.67%
Percent Inhibition ([2]; Table D, ERA-923 3 nM + ERA-923 3 nM): 81.51%
Percent Inhibition ([2]; Table D, ERA-923 3 nM + ERA-923 4 nM): 83.2%
Percent Inhibition ([2]; Table D, ERA-923 3 nM + ERA-923 5 nM): 82.87%
Percent Inhibition ([2]; Table D, ERA-923 4 nM + ERA-923 0 nM): 74.49%
Percent Inhibition ([2]; Table D, ERA-923 4 nM + ERA-923 0.25 nM): 79.39%
Percent Inhibition ([2]; Table D, ERA-923 4 nM + ERA-923 0.5 nM): 80.92%
Percent Inhibition ([2]; Table D, ERA-923 4 nM + ERA-923 1 nM): 77.2%
Percent Inhibition ([2]; Table D, ERA-923 4 nM + ERA-923 2 nM): 78.2%
Percent Inhibition ([2]; Table D, ERA-923 4 nM + ERA-923 3 nM): 79.28%
Percent Inhibition ([2]; Table D, ERA-923 4 nM + ERA-923 4 nM): 83.28%
Percent Inhibition ([2]; Table D, ERA-923 4 nM + ERA-923 5 nM): 85.92%
